Test results reported in paper PMC11642994, “AGC family kinase of Entamoeba histolytica: Decoding the members biochemically” (PLOS Pathogens, 2024).
pKd: −log10 of the molar value. No end group written: not given here.

Experiments:
Assay type in all cases: binding
KDD2 = target: T1, KDD2 (Entamoeba histolytica, UniProt C4M3C2, D242A/K147A); assay: Microscale Thermophoresis (MST), kinase-dead EhAGCK2 (KDD2); details: KDD2 (K147A and D242A), Tris-Cl pH 8, 25°C, peptide 500 μM to 153 nM, n = 6
T1 sequence (C4M3C2 1-434 K147A/D242A): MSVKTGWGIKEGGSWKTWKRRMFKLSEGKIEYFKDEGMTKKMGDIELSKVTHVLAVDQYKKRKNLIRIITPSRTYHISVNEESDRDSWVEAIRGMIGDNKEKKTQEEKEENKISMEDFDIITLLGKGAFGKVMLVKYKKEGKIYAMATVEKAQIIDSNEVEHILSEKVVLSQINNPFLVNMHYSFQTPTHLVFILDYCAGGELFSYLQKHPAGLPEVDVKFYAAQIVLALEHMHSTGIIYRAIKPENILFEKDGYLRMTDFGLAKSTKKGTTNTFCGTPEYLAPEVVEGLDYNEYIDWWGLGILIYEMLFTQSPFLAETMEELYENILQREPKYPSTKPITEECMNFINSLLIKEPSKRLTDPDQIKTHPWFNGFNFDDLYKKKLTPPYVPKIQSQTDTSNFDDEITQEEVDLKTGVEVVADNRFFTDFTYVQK
Experimental: (§1) Microscale Thermophoresis (MST) was performed in the presence of full-length and kinase-dead EhAGCK1 and EhAGCK2 proteins, along with HsGSK3, EhRhoGEF, and EhCoactosin peptide substrates. Proteins were labelled using a His-tag labelling kit, RED-tris-NTA 2nd Generation (Nano Temper Technologies, San Francisco, CA, USA). A brief labelling reaction was performed in a buffer containing (50 mM Tris-Cl pH 8, 150 mM NaCl, 1 mM β-ME and 5% glycerol) with a protein concentration of 20 nM and a molar dye: protein ratio of approximately 3:1. The mixture was kept at room temperature for 30 min, followed by centrifugation at 15000 g for 10 min at 4°C. A series of 16 1:1 dilutions were prepared using the same buffer, resulting in peptide concentrations ranging from 500 μM to […]. Following a 10 min incubation, the samples were loaded into standard monolith NT.115 capillaries from Nano Temper Technologies. […] Data from three independently pipetted measurements were analysed using MO. […]
(§2) The kinase assay data presented here are the mean ± standard error (SE) of n≥3 of three independent experiments. The Km and Vmax were determined from a direct, nonlinear fit of [V] versus [S] plots using the Michaelis-Menten equation: V=Vmax[S]/Km+[S] using the GraphPad Prism 9.0 software package (GraphPad Software Inc., CA, USA). […]

EhAGCK1 WT = EhAGCK1 WT (Entamoeba histolytica, UniProt C4M2W0); assay: Microscale Thermophoresis (MST), EhAGCK1 WT; details: MST, EhAGCK1
Experimental: as §1, §2

KDD1 = target: T2, KDD1 (Entamoeba histolytica, UniProt C4M2W0, D241A/K147A); assay: Microscale Thermophoresis (MST), kinase-dead EhAGCK1 (KDD1); details: KDD1 (K147A and D241A), Tris-Cl pH 8, 25°C, peptide 500 μM to 153 nM, n = 6
T2 sequence (C4M2W0 1-433 K147A/D241A): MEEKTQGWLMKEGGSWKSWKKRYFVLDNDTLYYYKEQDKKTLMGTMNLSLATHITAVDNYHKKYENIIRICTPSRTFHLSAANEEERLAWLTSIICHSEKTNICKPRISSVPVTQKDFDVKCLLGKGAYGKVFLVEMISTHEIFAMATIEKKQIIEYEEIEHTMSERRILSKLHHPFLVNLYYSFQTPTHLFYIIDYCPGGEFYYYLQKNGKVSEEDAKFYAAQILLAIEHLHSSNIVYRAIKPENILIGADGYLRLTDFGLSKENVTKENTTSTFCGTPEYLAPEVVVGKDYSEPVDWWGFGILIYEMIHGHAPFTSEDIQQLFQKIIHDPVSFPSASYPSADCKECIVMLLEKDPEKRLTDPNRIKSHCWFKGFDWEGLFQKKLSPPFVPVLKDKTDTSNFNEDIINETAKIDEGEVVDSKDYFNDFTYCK
Experimental: as §1, §2

Row | Sequence | pKd (KDD2) | KD range in words (EhAGCK1 WT) | pKd (KDD1)
1 | KAGGADYSFNTTSN [Coactosin] | 4.92 | – | –
2 | SSPSSVPAAQSTTPVNVPK [RhoGEF] | – | within the nanomolar range | 4.92
